US20230085307A1, “PYRIDAZINONE COMPOUND AND HERBICIDE” (NISSAN CHEMICAL CORPORATION, priority 2019, published 2023)

Columns and labels:
[1] = tested on: rice flat sedge; assay: Test Example 3: herbicidal effect by foliage application, Wagner pot (Table 18, symbol E); format: in vivo, rice flat sedge (Cyperus iria); conditions: 320 g/ha
Outline: (§1)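 Plants were sown in alluvial soil held under 0.1–0.5 cm standing water and grown 14 days in a greenhouse at 25–30 °C. An emulsifiable formulation, water-diluted to the set dose, was then sprayed onto the foliage, and effects were scored three weeks later using previously defined criteria.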

[2] = tested on: wild oat; assay: Test Example 5: herbicidal effect by foliage application, plastic box (Table 20, symbol I); format: in vivo, wild oat (Avena fatua); conditions: foliage application, 320 g/ha, three weeks after application
Outline: (§2)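 Plants were sown into sterilized diluvial soil under about 1.5 cm cover and kept in a greenhouse at 25° C. to 30° C. Fourteen days on, foliage received an even spray of the diluted emulsion. Herbicidal or crop effect was judged three weeks afterwards.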

[3] = tested on: windgrass; assay: Test Example 4: herbicidal effect by soil treatment (Table 19, symbol L); format: in vivo, windgrass (Apera spica-venti); conditions: amount of applied herbicide 320 g/ha
Outline: (§3)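 Pre-emergence style soil spray: seeds under ~1.5 cm sterilized diluvial soil received a uniform coat of emulsion diluted to the predetermined herbicide amount. Greenhouse 25–30° C; readout at week three on previously defined criteria.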

[4] = tested on: Italian ryegrass; assay: Test Example 4: herbicidal effect by soil treatment (Table 19, symbol K); format: in vivo, Italian ryegrass (Lolium multiflorum); conditions: amount of applied herbicide 320 g/ha
Outline: as §3

[5] = tested on: velvetleaf; assay: Test Example 4: herbicidal effect by soil treatment (Table 19, symbol M); format: in vivo, velvetleaf (Abutilon theophrasti); conditions: amount of applied herbicide 320 g/ha
Outline: as §3

[6] = tested on: oval-leafed pondweed; assay: Test Example 1: herbicidal activity, application before weed generation under submerged conditions (Table 16, symbol C); format: in vivo, oval-leafed pondweed (Monochoria vaginalis); conditions: amount of applied herbicide 320 g/ha
Outline: (§4)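 Alluvial soil was flooded to 4 cm depth, weed seeds were sown mixed and 2.5-leaf rice seedlings were transplanted. On sowing day, the compound's emulsion, diluted in water to a set dose, was applied to the water surface. Plants grew at 25–30 °C and were scored 0–5 after three weeks.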

[7] = tested on: Chinese sprangletop; assay: Test Example 3: herbicidal effect by foliage application, Wagner pot (Table 18, symbol D); format: in vivo, chinese sprangletop (Leptochloa chinensis); conditions: 320 g/ha
Outline: as §1

[8] = tested on: redroot pigweed; assay: Test Example 4: herbicidal effect by soil treatment (Table 19, symbol N); format: in vivo, redroot pigweed (Amaranthus retroflexus); conditions: amount of applied herbicide 320 g/ha
Outline: as §3

[9] = tested on: southern crabgrass; assay: Test Example 5: herbicidal effect by foliage application, plastic box (Table 20, symbol F); format: in vivo, southern crabgrass (Digitaria ciliaris); conditions: foliage application, 320 g/ha, three weeks after application
Outline: as §2

[10] = tested on: lambsquarters; assay: Test Example 4: herbicidal effect by soil treatment (Table 19, symbol O); format: in vivo, lambsquarters (Chenopodium album); conditions: amount of applied herbicide 320 g/ha
Outline: as §3

[11] = tested on: persian speedwell; assay: Test Example 5: herbicidal effect by foliage application, plastic box (Table 20, symbol R); format: in vivo, Persian speedwell (Veronica persica); conditions: foliage application, 320 g/ha, three weeks after application
Outline: as §2

[12] = tested on: blackgrass; assay: Test Example 4: herbicidal effect by soil treatment (Table 19, symbol J); format: in vivo, blackgrass (Alopecurus myosuroides); conditions: amount of applied herbicide 320 g/ha
Outline: as §3

[13] = tested on: barnyard grass; assay: Test Example 5: herbicidal effect by foliage application, plastic box (Table 20, symbol H); format: in vivo, barnyard grass (Echinochloa crus-galli); conditions: foliage application, 320 g/ha, three weeks after application
Outline: as §2

[14] = tested on: chickweed; assay: Test Example 4: herbicidal effect by soil treatment (Table 19, symbol P); format: in vivo, common chickweed (Stellaria media); conditions: amount of applied herbicide 320 g/ha
Outline: as §3

[15] = tested on: green foxtail; assay: Test Example 5: herbicidal effect by foliage application, plastic box (Table 20, symbol G); format: in vivo, green foxtail (Setaria viridis); conditions: foliage application, 320 g/ha, three weeks after application
Outline: as §2

[16] = tested on: persian speedwell; assay: Test Example 4: herbicidal effect by soil treatment (Table 19, symbol R); format: in vivo, Persian speedwell (Veronica persica); conditions: amount of applied herbicide 320 g/ha
Outline: as §3

[17] = tested on: velvetleaf; assay: Test Example 5: herbicidal effect by foliage application, plastic box (Table 20, symbol M); format: in vivo, velvetleaf (Abutilon theophrasti); conditions: foliage application, 320 g/ha, three weeks after application
Outline: as §2

[18] = tested on: southern crabgrass; assay: Test Example 4: herbicidal effect by soil treatment (Table 19, symbol F); format: in vivo, southern crabgrass (Digitaria ciliaris); conditions: amount of applied herbicide 320 g/ha
Outline: as §3

[19] = tested on: windgrass; assay: Test Example 5: herbicidal effect by foliage application, plastic box (Table 20, symbol L); format: in vivo, windgrass (Apera spica-venti); conditions: foliage application, 320 g/ha, three weeks after application
Outline: as §2

[20] = tested on: Japanese bulrush; assay: Test Example 1: herbicidal activity, application before weed generation under submerged conditions (Table 16, symbol B); format: in vivo, Japanese bulrush (Schoenoplectus juncoides); conditions: amount of applied herbicide 320 g/ha
Outline: as §4

[21] = tested on: barnyard grass; assay: Test Example 4: herbicidal effect by soil treatment (Table 19, symbol H); format: in vivo, barnyard grass (Echinochloa crus-galli); conditions: amount of applied herbicide 320 g/ha
Outline: as §3

[22] = tested on: late watergrass; assay: Test Example 1: herbicidal activity, application before weed generation under submerged conditions (Table 16, symbol A); format: in vivo, late watergrass (Echinochloa oryzicola); conditions: amount of applied herbicide 320 g/ha
Outline: as §4

[23] = tested on: lambsquarters; assay: Test Example 5: herbicidal effect by foliage application, plastic box (Table 20, symbol O); format: in vivo, lambsquarters (Chenopodium album); conditions: foliage application, 320 g/ha, three weeks after application
Outline: as §2

[24] = tested on: Italian ryegrass; assay: Test Example 5: herbicidal effect by foliage application, plastic box (Table 20, symbol K); format: in vivo, Italian ryegrass (Lolium multiflorum); conditions: foliage application, 320 g/ha, three weeks after application
Outline: as §2

[25] = tested on: green foxtail; assay: Test Example 4: herbicidal effect by soil treatment (Table 19, symbol G); format: in vivo, green foxtail (Setaria viridis); conditions: amount of applied herbicide 320 g/ha
Outline: as §3

[26] = tested on: barnyard grass; assay: Test Example 3: herbicidal effect by foliage application, Wagner pot (Table 18, symbol H); format: in vivo, barnyard grass (Echinochloa crus-galli); conditions: 320 g/ha
Outline: as §1

[27] = tested on: wild oat; assay: Test Example 4: herbicidal effect by soil treatment (Table 19, symbol I); format: in vivo, wild oat (Avena fatua); conditions: amount of applied herbicide 320 g/ha
Outline: as §3

[28] = tested on: blackgrass; assay: Test Example 5: herbicidal effect by foliage application, plastic box (Table 20, symbol J); format: in vivo, blackgrass (Alopecurus myosuroides); conditions: foliage application, 320 g/ha, three weeks after application
Outline: as §2

Row | Compound | herbicidal effect on rice flat sedge (E) [1] | herbicidal effect on wild oat (I) [2] | L: windgrass, herbicidal effect grade [3] | K: Italian ryegrass, herbicidal effect grade [4] | M: velvetleaf, herbicidal effect grade [5] | Herbicidal effect, C: oval-leafed pondweed [6] | herbicidal effect on Chinese sprangletop (D) [7] | N: redroot pigweed, herbicidal effect grade [8] | herbicidal effect on southern crabgrass (F) [9] | O: lambsquarters, herbicidal effect grade [10] | herbicidal effect on persian speedwell (R) [11] | J: blackgrass, herbicidal effect grade [12] | herbicidal effect on barnyard grass (H) [13] | P: chickweed, herbicidal effect grade [14] | herbicidal effect on green foxtail (G) [15] | R: persian speedwell, herbicidal effect grade [16] | herbicidal effect on velvetleaf (M) [17] | F: southern crabgrass, herbicidal effect grade [18] | herbicidal effect on windgrass (L) [19] | Herbicidal effect, B: Japanese bulrush [20] | also measured
1 | CCOc1cc(F)ccc1-c1sc2cc(Cl)c(Cl)cc2c1-c1c(O)c(C)nn(C)c1=O [5-053] | 5 (Herbicidal rate of 90% or more (almost completely withered)) | 0 (Herbicidal rate of 5% or less (almost no effect)) | 0 (Herbicidal rate of 5% or less (almost no effect)) | 0 (Herbicidal rate of 5% or less (almost no effect)) | 0 (Herbicidal rate of 5% or less (almost no effect)) | 0 (Herbicidal rate of 5% or less (almost no effect)) | 3 (Herbicidal rate of 40% or more and less than 70%) | 3 (Herbicidal rate of 40% or more and less than 70%) | 3 (Herbicidal rate of 40% or more and less than 70%) | 0 (Herbicidal rate of 5% or less (almost no effect)) | 5 (Herbicidal rate of 90% or more (almost completely withered)) | 0 (Herbicidal rate of 5% or less (almost no effect)) | 1 (Herbicidal rate of 5% or more and less than 20%) | 0 (Herbicidal rate of 5% or less (almost no effect)) | 4 (Herbicidal rate of 70% or more and less than 90%) | 1 (Herbicidal rate of 5% or more and less than 20%) | 5 (Herbicidal rate of 90% or more (almost completely withered)) | 0 (Herbicidal rate of 5% or less (almost no effect)) | 3 (Herbicidal rate of 40% or more and less than 70%) | 3 (Herbicidal rate of 40% or more and less than 70%) | H: barnyard grass, herbicidal effect grade [21]: 0 (Herbicidal rate of 5% or less (almost no effect)); Herbicidal effect, A: late watergrass [22]: 0 (Herbicidal rate of 5% or less (almost no effect)); herbicidal effect on lambsquarters (O) [23]: 3 (Herbicidal rate of 40% or more and less than 70%); herbicidal effect on Italian ryegrass (K) [24]: 0 (Herbicidal rate of 5% or less (almost no effect)); G: green foxtail, herbicidal effect grade [25]: 0 (Herbicidal rate of 5% or less (almost no effect)); herbicidal effect on barnyard grass (H) [26]: 3 (Herbicidal rate of 40% or more and less than 70%); I: wild oat, herbicidal effect grade [27]: 0 (Herbicidal rate of 5% or less (almost no effect)); herbicidal effect on blackgrass (J) [28]: 0 (Herbicidal rate of 5% or less (almost no effect))
2 | CCCC(=O)Oc1c(C)nn(C)c(=O)c1-c1c(-c2ccccc2OC)sc2cc(OC)c(Cl)cc12 [5-069] | 0 (Herbicidal rate of 5% or less (almost no effect)) | 0 (Herbicidal rate of 5% or less (almost no effect)) | 0 (Herbicidal rate of 5% or less (almost no effect)) | 0 (Herbicidal rate of 5% or less (almost no effect)) | 0 (Herbicidal rate of 5% or less (almost no effect)) | 0 (Herbicidal rate of 5% or less (almost no effect)) | 0 (Herbicidal rate of 5% or less (almost no effect)) | 2 (Herbicidal rate of 20% or more and less than 40%) | 4 (Herbicidal rate of 70% or more and less than 90%) | 0 (Herbicidal rate of 5% or less (almost no effect)) | 0 (Herbicidal rate of 5% or less (almost no effect)) | 0 (Herbicidal rate of 5% or less (almost no effect)) | 3 (Herbicidal rate of 40% or more and less than 70%) | 0 (Herbicidal rate of 5% or less (almost no effect)) | 3 (Herbicidal rate of 40% or more and less than 70%) | 0 (Herbicidal rate of 5% or less (almost no effect)) | 3 (Herbicidal rate of 40% or more and less than 70%) | 0 (Herbicidal rate of 5% or less (almost no effect)) | 2 (Herbicidal rate of 20% or more and less than 40%) | 1 (Herbicidal rate of 5% or more and less than 20%) | H: barnyard grass, herbicidal effect grade [21]: 0 (Herbicidal rate of 5% or less (almost no effect)); Herbicidal effect, A: late watergrass [22]: 3 (Herbicidal rate of 40% or more and less than 70%); herbicidal effect on lambsquarters (O) [23]: 3 (Herbicidal rate of 40% or more and less than 70%); herbicidal effect on Italian ryegrass (K) [24]: 0 (Herbicidal rate of 5% or less (almost no effect)); G: green foxtail, herbicidal effect grade [25]: 0 (Herbicidal rate of 5% or less (almost no effect)); herbicidal effect on barnyard grass (H) [26]: 4 (Herbicidal rate of 70% or more and less than 90%); I: wild oat, herbicidal effect grade [27]: 0 (Herbicidal rate of 5% or less (almost no effect)); herbicidal effect on blackgrass (J) [28]: 0 (Herbicidal rate of 5% or less (almost no effect))
3 | COc1ccc(-c2sc3cc(OC)c(Cl)cc3c2-c2c(O)c(C)nn(C)c2=O)cc1 [5-070] | 0 (Herbicidal rate of 5% or less (almost no effect)) | 0 (Herbicidal rate of 5% or less (almost no effect)) | 0 (Herbicidal rate of 5% or less (almost no effect)) | 0 (Herbicidal rate of 5% or less (almost no effect)) | 0 (Herbicidal rate of 5% or less (almost no effect)) | 0 (Herbicidal rate of 5% or less (almost no effect)) | 0 (Herbicidal rate of 5% or less (almost no effect)) | 0 (Herbicidal rate of 5% or less (almost no effect)) | 0 (Herbicidal rate of 5% or less (almost no effect)) | 0 (Herbicidal rate of 5% or less (almost no effect)) | 4 (Herbicidal rate of 70% or more and less than 90%) | 0 (Herbicidal rate of 5% or less (almost no effect)) | 0 (Herbicidal rate of 5% or less (almost no effect)) | 1 (Herbicidal rate of 5% or more and less than 20%) | 0 (Herbicidal rate of 5% or less (almost no effect)) | 3 (Herbicidal rate of 40% or more and less than 70%) | 0 (Herbicidal rate of 5% or less (almost no effect)) | 0 (Herbicidal rate of 5% or less (almost no effect)) | 0 (Herbicidal rate of 5% or less (almost no effect)) | 2 (Herbicidal rate of 20% or more and less than 40%) | H: barnyard grass, herbicidal effect grade [21]: 0 (Herbicidal rate of 5% or less (almost no effect)); Herbicidal effect, A: late watergrass [22]: 0 (Herbicidal rate of 5% or less (almost no effect)); herbicidal effect on lambsquarters (O) [23]: 0 (Herbicidal rate of 5% or less (almost no effect)); herbicidal effect on Italian ryegrass (K) [24]: 0 (Herbicidal rate of 5% or less (almost no effect)); G: green foxtail, herbicidal effect grade [25]: 0 (Herbicidal rate of 5% or less (almost no effect)); herbicidal effect on barnyard grass (H) [26]: 3 (Herbicidal rate of 40% or more and less than 70%); I: wild oat, herbicidal effect grade [27]: 0 (Herbicidal rate of 5% or less (almost no effect)); herbicidal effect on blackgrass (J) [28]: 0 (Herbicidal rate of 5% or less (almost no effect))
